The test system of experiment [1] is P-P70S6K (T389). As to the kind of experiment: Cell based AlphaLISA assay, inhibition of P-P70S6K (T389) in MDA-MB-468 cells (mTORC1 substrate). The following applies: AlphaLisa, two to four hours at 37° C.; for IC50: Homo sapiens, 4 h, read-out: pIC50 for Inhibition of mTORC1 and mTORC2 Substrate Phosphorylation p-P70S6K-(T389) (converted). Here is the method: (§1) Cell Based AlphaLISA Assays For Determining IC50 For Inhibition of P-Akt (S473), P-4E-BP1(T37/46), and P-P70S6K (T389) in MDA-MB-468 Cells
(§2) mTOR Kinase Cellular Assay
(§3) To measure functional activity of mTORC1 and mTORC2 in cells the phosphorylation of 4EBPT (Thr37/46) and P70S6K (Thr389), and AKT1/2/3 (Ser473) was monitored using AlphaLisa SureFire Ultra Kits (Perkin Elmer). […] Incubations were terminated by removal of the assay buffer and addition of lysis buffer provided with the assay kit. Samples were processed according to the manufacturer's instructions. The Alpha signal from the respective phosphoproteinswas measured in duplicate using a microplate reader (Envision, Perkin-Elmer or Spectramax M5, Molecular Devices). Inhibitor concentration response curves were analyzed using normalized IC50 regression curve filling with control based normalization.

The test system of experiment [2] is P-4E-BP1 (T37/46). Briefly: Cell based AlphaLISA assay, inhibition of P-4E-BP1 (T37/46) in MDA-MB-468 cells (mTORC1 substrate). Conditions: AlphaLisa, two to four hours at 37° C.; for IC50: Homo sapiens, 4 h, read-out: pIC50 for Inhibition of mTORC1 and mTORC2 Substrate Phosphorylation P-4E-BP1-(T37/46) (converted). The protocol: as §1, §2, §3
(In Alpha technology, singlet oxygen from a donor bead excites a nearby acceptor bead.)

The test system of experiment [3] is P-Akt (S473). As to the kind of experiment: Cell based AlphaLISA assay, inhibition of P-Akt (S473) in MDA-MB-468 cells (mTORC2 substrate). Conditions: AlphaLisa, two to four hours at 37° C.; for IC50: Homo sapiens, 4 h, read-out: pIC50 for Inhibition of mTORC1 and mTORC2 Substrate Phosphorylation p-AKT1/2/3-(S473) (converted). Here is the method: as §1, §2, §3

As for `CO[C@H]1C[C@@H]2CC[C@@H](C)[C@@](O)(O2)C(=O)C(=O)N2CCCC[C@H]2C(=O)O[C@H]([C@H](C)C[C@@H]2CC[C@@H](OC(=O)NCc3cnc(N4CCN(CCOCCOCCOCCOCCC(=O)NCCCCn5nc(-c6ccc7oc(N)nc7c6)c6c(N)ncnc65)CC4)nc3)[C@H](OC)C2)C[C@@H](OC)[C@H](C)/C=C(\C)[C@@H](O)[C@@H](OC)C(=O)[C@H](C)C[C@H](C)/C=C/C=C/C=C/1C` [Example 90], the IC50 in experiment [1] is below 1 nM; in experiment [2], above 1000 nM; in experiment [3], above 1000 nM.
For the compound `CO[C@H]1C[C@@H]2CC[C@@H](C)[C@@](O)(O2)C(=O)C(=O)N2CCCC[C@H]2C(=O)O[C@H]([C@H](C)C[C@@H]2CC[C@@H](OC(=O)N3CCc4nc(N5CCN(c6ncc(C(=O)N7CCN(c8ncc(C(=O)N9CCc%10cc(Cn%11nc(-c%12cnc%13[nH]ccc%13c%12)c%12c(N)ncnc%12%11)ccc%10C9)cn8)CC7)cn6)CC5)ncc4C3)[C@H](OC)C2)CC(=O)[C@H](C)/C=C(\C)[C@@H](O)[C@@H](OC)C(=O)[C@H](C)C[C@H](C)/C=C/C=C/C=C/1C` [Example 142], the IC50 is 1 to 10 nM in experiment [1], above 1000 nM in experiment [2] and above 1000 nM in experiment [3].
On to `CO[C@H]1C[C@@H]2CC[C@@H](C)[C@@](O)(O2)C(=O)C(=O)N2CCCCC2C(=O)O[C@H]([C@H](C)C[C@@H]2CC[C@@H](OC(=O)NCc3cnc(N4CCN(C(=O)CN(C)CC(=O)NCCOCCOCCC(=O)NCCCCn5nc(-c6ccc7oc(N)nc7c6)c6c(N)ncnc65)CC4)nc3)[C@H](OC)C2)C[C@@H](OC)[C@H](C)/C=C(\C)[C@@H](O)[C@@H](OC)C(=O)[C@H](C)C[C@H](C)/C=C/C=C/C=C/1C` (stereo partly drawn) [Example 92], for which the IC50 was below 1 nM in experiment [1], below 3.16 nM in experiment [2] and 3.16 to 31.6 nM in experiment [3].
As to `CO[C@H]1C[C@@H]2CC[C@@H](C)[C@@](O)(O2)C(=O)C(=O)N2CCCC[C@H]2C(=O)O[C@H]([C@H](C)C[C@@H]2CC[C@@H](OC(=O)NCCOCCOCCOCCOCCOCCOCCOCCOCCC(=O)N3CCc4cc(Cn5nc(-c6ccc7oc(N)nc7c6)c6c(N)ncnc65)ccc4C3)[C@H](OC)C2)C[C@@H](O)[C@H](C)/C=C(\C)[C@@H](O)[C@@H](OC)C(=O)[C@H](C)C[C@H](C)/C=C/C=C/C=C/1C` [Example 75], in experiment [1], the “pIC50 for Inhibition of mTORC1 and mTORC2 Substrate Phosphorylation p-P70S6K-(T389)” value is on record as “+++ (≥9)”. In addition, the “pIC50 for Inhibition of mTORC1 and mTORC2 Substrate Phosphorylation P-4E-BP1-(T37/46)” value in experiment [2] was “+++ (≥8.5)”. Moreover, the “pIC50 for Inhibition of mTORC1 and mTORC2 Substrate Phosphorylation p-AKT1/2/3-(S473)” value in experiment [3] is “++ (8.5 > pIC50 ≥ 7.5)”.
Turning to `CO[C@H]1C[C@@H]2CC[C@@H](C)[C@@](O)(O2)C(=O)C(=O)N2CCCC[C@H]2C(=O)O[C@H]([C@H](C)C[C@@H]2CC[C@@H](OC(=S)NCCOCCOCCOCCOCCOCCOCCOCCOCCC(=O)N3CCc4cc(Cn5nc(-c6ccc7oc(N)nc7c6)c6c(N)ncnc65)ccc4C3)[C@H](OC)C2)C[C@@H](OC)[C@H](C)/C=C(\C)[C@@H](O)[C@@H](OC)C(=O)[C@H](C)C[C@H](C)/C=C/C=C/C=C/1C` [Example 34], the IC50 in experiment [1] was below 1 nM; in experiment [2], above 1000 nM; in experiment [3] it was above 1000 nM.
`CO[C@H]1C[C@@H]2CC[C@@H](C)[C@@](O)(O2)C(=O)C(=O)N2CCCC[C@H]2C(=O)O[C@H]([C@H](C)C[C@@H]2CC[C@@H](OC(=O)NCc3cnc(N4CCN(c5ncc(C(=O)NCCOCCOCCOCCOCCC(=O)N6CCc7cc(Cn8nc(-c9cnc%10[nH]ccc%10c9)c9c(N)ncnc98)ccc7C6)cn5)CC4CO)nc3)[C@H](OC)C2)CC(=O)[C@H](C)/C=C(\C)[C@@H](O)[C@@H](OC)C(=O)[C@H](C)C[C@H](C)/C=C/C=C/C=C/1C` (stereo partly drawn) [Example 86]: the results for the IC50 in experiment [1], in experiment [2] and in experiment [3] were below 1 nM, below 3.16 nM and 3.16 to 31.6 nM, respectively.
The like results for `CO[C@H]1C[C@@H]2CC[C@@H](C)[C@@](O)(O2)C(=O)C(=O)N2CCCC[C@H]2C(=O)O[C@H]([C@H](C)C[C@@H]2CC[C@@H](OC(=O)NCc3cnc(N4CCN(C(=O)CCOCCOCCN5CCN(c6ncc(C(=O)N7CCc8cc(Cn9nc(-c%10ccc%11[nH]ccc%11c%10)c%10c(N)ncnc%109)ccc8C7)cn6)CC5)CC4)nc3)[C@H](OC)C2)CC(=O)[C@H](C)/C=C(\C)[C@@H](O)[C@@H](OC)C(=O)[C@H](C)C[C@H](C)/C=C/C=C/C=C/1C` [Example 126] were, in that order, below 1 nM, 3.16 to 31.6 nM and above 1000 nM.
In the case of `CO[C@H]1C[C@@H]2CC[C@@H](C)[C@@](O)(O2)C(=O)C(=O)N2CCCC[C@H]2C(=O)O[C@H]([C@H](C)C[C@@H]2CC[C@@H](OC(=S)NCCOCCOCCOCCOCCOCCOCCOCCOCCC(=O)NCc3ccc(Cn4nc(-c5ccc6oc(N)nc6c5)c5c(N)ncnc54)cc3)[C@H](OC)C2)C[C@@H](O)[C@H](C)/C=C(\C)[C@@H](O)[C@@H](OC)C(=O)[C@H](C)C[C@H](C)/C=C/C=C/C=C/1C` [Example 39], the IC50 was below 1 nM in experiment [1], below 3.16 nM in experiment [2] and below 3.16 nM in experiment [3].
Turning to `CO[C@H]1C[C@@H]2CC[C@@H](C)[C@@](O)(O2)C(=O)C(=O)N2CCCC[C@H]2C(=O)O[C@H]([C@H](C)C[C@@H]2CC[C@@H](OC(=O)NCc3cnc(N4CCN(CCOCCN5CCN(c6ncc(C(=O)N7CCc8cc(Cn9nc(-c%10ccc%11oc(N)nc%11c%10)c%10c(N)ncnc%109)ccc8C7)cn6)CC5)CC4)nc3)[C@H](OC)C2)C[C@@H](OC)[C@H](C)/C=C(\C)[C@@H](O)[C@@H](OC)C(=O)[C@H](C)C[C@H](C)/C=C/C=C/C=C/1C` [Example 128], the IC50 is below 1 nM in experiment [1], 3.16 to 31.6 nM in experiment [2] and 31.6 to 1000 nM in experiment [3].
The like results for `CO[C@H]1C[C@@H]2CC[C@@H](C)[C@@](O)(O2)C(=O)C(=O)N2CCCC[C@H]2C(=O)O[C@H]([C@H](C)C[C@@H]2CC[C@@H](OC(=O)NCc3cnc(N4CCN(C(=O)CCOCCN5CCN(c6ncc(C(=O)NCCS(=O)(=O)c7ccc(C(=O)N8CCOc9ccc(-c%10ccc(N)nc%10)cc9C8)c(C)c7F)cn6)CC5)CC4)nc3)[C@H](OC)C2)C[C@@H](O)[C@H](C)/C=C(\C)[C@@H](O)[C@@H](OC)C(=O)[C@H](C)C[C@H](C)/C=C/C=C/C=C/1C` [Example 122] were, in that order, below 1 nM, below 3.16 nM and 3.16 to 31.6 nM.
As to `CO[C@H]1C[C@@H]2CC[C@@H](C)[C@@](O)(O2)C(=O)C(=O)N2CCCC[C@H]2C(=O)O[C@H]([C@H](C)C[C@@H]2CC[C@@H](OC(=S)NCCOCCOCCOCCOCCOCCOCCOCCOCCC(=O)NCc3ccc(Cn4nc(-c5ccc6oc(N)nc6c5)c5c(N)ncnc54)cc3)[C@H](OC)C2)C[C@@H](O)[C@H](C)/C=C(\C)[C@@H](O)[C@@H](OC)C(=O)[C@H](C)C[C@H](C)/C=C/C=C/C=C/1C` [Example 83], the “pIC50 for Inhibition of mTORC1 and mTORC2 Substrate Phosphorylation p-P70S6K-(T389)” value in experiment [1] is reported as “+++ (≥9)”. The “pIC50 for Inhibition of mTORC1 and mTORC2 Substrate Phosphorylation P-4E-BP1-(T37/46)” value in experiment [2] is recorded as “+++ (≥8.5)”. Further, the “pIC50 for Inhibition of mTORC1 and mTORC2 Substrate Phosphorylation p-AKT1/2/3-(S473)” value in experiment [3] is “++ (8.5 > pIC50 ≥ 7.5)”.
As to `CO[C@H]1C[C@@H]2CC[C@@H](C)[C@@](O)(O2)C(=O)C(=O)N2CCCC[C@H]2C(=O)O[C@H]([C@H](C)C[C@@H]2CC[C@@H](OC(=O)NCc3cnc(N4CCN(C(=O)CN(C)CC(=O)NCCOCCOCCC(=O)N5CCc6cc(Cn7nc(-c8ccc9oc(N)nc9c8)c8c(N)ncnc87)ccc6C5)CC4)nc3)[C@H](OC)C2)C[C@@H](OC)[C@H](C)/C=C(\C)[C@@H](O)[C@@H](OC)C(=O)[C@H](C)C[C@H](C)/C=C/C=C/C=C/1C` [Example 91], the IC50 was below 1 nM in experiment [1], below 3.16 nM in experiment [2] and 3.16 to 31.6 nM in experiment [3].
For `CO[C@H]1C[C@@H]2CC[C@@H](C)[C@@](O)(O2)C(=O)C(=O)N2CCCC[C@H]2C(=O)O[C@H]([C@H](C)C[C@@H]2CC[C@@H](OC(=O)NCCOCCOCCN3C[C@@H]4C[C@H]3CN4CCOCCOCCOCCOCCC(=O)N3CCc4cc(Cn5nc(-c6ccc7oc(N)nc7c6)c6c(N)ncnc65)ccc4C3)[C@H](OC)C2)C[C@@H](O)[C@H](C)/C=C(\C)[C@@H](O)[C@@H](OC)C(=O)[C@H](C)C[C@H](C)/C=C/C=C/C=C/1C` [Example 144], the figures for the IC50 in experiment [1], in experiment [2] and in experiment [3] were below 1 nM, below 3.16 nM and 3.16 to 31.6 nM, respectively.
The like results for `CO[C@H]1C[C@@H]2CC[C@@H](C)[C@@](O)(O2)C(=O)C(=O)N2CCCC[C@H]2C(=O)O[C@H]([C@H](C)C[C@@H]2CC[C@@H](OC(=O)N3CCC(N)(C(=O)NCCOCCOCCOCCOCCOCCOCCC(=O)N4CCc5cc(Cn6nc(-c7ccc8oc(N)nc8c7)c7c(N)ncnc76)ccc5C4)CC3)[C@H](OC)C2)C[C@@H](O)[C@H](C)/C=C(\C)[C@@H](O)[C@@H](OC)C(=O)[C@H](C)C[C@H](C)/C=C/C=C/C=C/1C` [Example 101] were, in that order, below 1 nM, below 3.16 nM and 3.16 to 31.6 nM.

Values taken from patent publication US10980889B1 (Revolution Medicines, Inc., priority 2018, dated 2021).
